Measured values: paper PMC5919452 (Japanese Journal of Cancer Research : Gann, 1994)

Key:
[1] = molecular target: p60^c‐src (Homo sapiens, UniProt P12931); experiment: p60c-src tyrosine kinase inhibition; type: biochemical; settings: read-out: IC50 for p60^c‐src
[2] = molecular target: insulin receptor kinase (Homo sapiens, UniProt P06213); experiment: insulin receptor kinase inhibition; type: biochemical; settings: read-out: IC50 for insulin receptor kinase
[3] = test system: casein kinase II; experiment: casein kinase II inhibition; type: biochemical; settings: 20 μM
[4] = molecular target: protein kinase C; experiment: protein kinase C inhibition; type: biochemical; settings: read-out: IC50 for protein kinase C; serine/threonine kinase
[5] = molecular target: T1, EGF receptor (Homo sapiens, UniProt P00533); experiment: kinetic study of kinase inhibition; type: biochemical
T1 sequence (P00533 25-1210): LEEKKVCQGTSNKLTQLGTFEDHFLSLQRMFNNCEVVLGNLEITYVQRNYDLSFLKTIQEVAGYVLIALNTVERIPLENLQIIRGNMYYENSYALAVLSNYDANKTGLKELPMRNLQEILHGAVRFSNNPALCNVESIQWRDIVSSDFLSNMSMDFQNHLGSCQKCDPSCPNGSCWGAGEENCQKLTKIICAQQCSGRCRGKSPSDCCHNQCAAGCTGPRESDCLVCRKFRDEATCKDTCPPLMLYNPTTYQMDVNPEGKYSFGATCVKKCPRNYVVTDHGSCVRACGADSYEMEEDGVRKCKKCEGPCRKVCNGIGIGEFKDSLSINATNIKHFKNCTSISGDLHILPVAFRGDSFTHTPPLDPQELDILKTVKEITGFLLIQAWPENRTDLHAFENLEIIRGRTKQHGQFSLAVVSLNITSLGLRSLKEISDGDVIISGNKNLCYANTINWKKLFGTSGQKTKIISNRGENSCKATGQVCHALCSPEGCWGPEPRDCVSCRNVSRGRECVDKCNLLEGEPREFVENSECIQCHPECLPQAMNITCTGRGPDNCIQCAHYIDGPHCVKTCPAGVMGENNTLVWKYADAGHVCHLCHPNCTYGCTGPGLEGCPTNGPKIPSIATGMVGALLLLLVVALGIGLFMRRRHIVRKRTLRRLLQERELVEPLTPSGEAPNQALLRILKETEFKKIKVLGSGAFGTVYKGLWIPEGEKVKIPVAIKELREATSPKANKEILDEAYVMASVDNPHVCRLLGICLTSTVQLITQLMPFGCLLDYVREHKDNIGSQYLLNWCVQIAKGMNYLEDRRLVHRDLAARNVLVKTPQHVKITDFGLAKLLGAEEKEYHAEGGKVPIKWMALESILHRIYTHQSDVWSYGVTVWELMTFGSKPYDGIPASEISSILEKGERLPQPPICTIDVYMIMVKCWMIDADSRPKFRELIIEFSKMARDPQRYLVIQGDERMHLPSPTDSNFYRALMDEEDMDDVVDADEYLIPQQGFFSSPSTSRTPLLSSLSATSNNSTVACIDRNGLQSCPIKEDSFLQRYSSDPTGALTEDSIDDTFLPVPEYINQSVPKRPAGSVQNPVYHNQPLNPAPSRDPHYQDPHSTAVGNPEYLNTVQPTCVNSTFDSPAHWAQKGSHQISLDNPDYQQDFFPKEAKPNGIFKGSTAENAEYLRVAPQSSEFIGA

[6] = molecular target: p43^v‐abl; experiment: p43v-abl tyrosine kinase inhibition; type: biochemical; settings: read-out: IC50 for p43^v‐abl
[7] = molecular target: erbB‐2 (Homo sapiens, UniProt P04626); experiment: erbB-2 tyrosine kinase inhibition; type: biochemical; settings: read-out: IC50 for erbB‐2
erbB‐2, sequence (P04626 23-1255, species assumed): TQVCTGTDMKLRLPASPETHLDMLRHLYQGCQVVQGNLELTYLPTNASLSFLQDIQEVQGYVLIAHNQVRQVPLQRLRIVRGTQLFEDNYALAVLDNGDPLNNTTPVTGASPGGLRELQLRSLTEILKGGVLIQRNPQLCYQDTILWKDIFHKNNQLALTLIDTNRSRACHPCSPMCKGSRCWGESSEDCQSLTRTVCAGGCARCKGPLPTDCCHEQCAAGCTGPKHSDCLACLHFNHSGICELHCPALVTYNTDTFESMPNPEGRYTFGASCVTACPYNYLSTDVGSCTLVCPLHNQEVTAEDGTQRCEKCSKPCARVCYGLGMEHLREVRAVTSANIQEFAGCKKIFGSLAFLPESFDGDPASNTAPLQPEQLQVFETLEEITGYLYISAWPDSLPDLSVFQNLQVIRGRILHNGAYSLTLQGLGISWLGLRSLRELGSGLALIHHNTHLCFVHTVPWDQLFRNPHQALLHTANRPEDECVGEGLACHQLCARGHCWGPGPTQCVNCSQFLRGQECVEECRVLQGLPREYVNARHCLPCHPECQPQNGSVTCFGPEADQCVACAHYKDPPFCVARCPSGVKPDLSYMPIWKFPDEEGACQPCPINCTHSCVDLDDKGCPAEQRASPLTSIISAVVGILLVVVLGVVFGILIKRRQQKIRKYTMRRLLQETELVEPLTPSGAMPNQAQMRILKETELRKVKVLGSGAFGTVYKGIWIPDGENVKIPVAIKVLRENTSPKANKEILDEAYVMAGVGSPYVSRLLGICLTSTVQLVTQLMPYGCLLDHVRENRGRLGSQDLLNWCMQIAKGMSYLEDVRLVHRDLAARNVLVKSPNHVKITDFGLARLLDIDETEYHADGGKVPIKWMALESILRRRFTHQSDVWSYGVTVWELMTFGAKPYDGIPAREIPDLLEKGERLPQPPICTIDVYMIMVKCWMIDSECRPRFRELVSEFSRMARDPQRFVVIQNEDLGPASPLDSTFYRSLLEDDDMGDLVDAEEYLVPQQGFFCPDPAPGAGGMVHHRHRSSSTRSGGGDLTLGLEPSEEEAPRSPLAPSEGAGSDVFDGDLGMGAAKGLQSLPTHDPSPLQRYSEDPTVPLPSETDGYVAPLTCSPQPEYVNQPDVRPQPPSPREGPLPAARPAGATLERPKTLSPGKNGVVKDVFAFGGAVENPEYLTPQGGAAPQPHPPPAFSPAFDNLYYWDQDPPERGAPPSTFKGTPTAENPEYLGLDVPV

[8] = test system: casein kinase I; experiment: casein kinase I inhibition; type: biochemical; settings: 20 μM
[9] = molecular target: epidermal growth factor (EGF) receptor kinase (Homo sapiens, UniProt P00533); experiment: EGF receptor kinase inhibition; type: biochemical; settings: read-out: IC50 for epidermal growth factor (EGF) receptor kinase
epidermal growth factor (EGF) receptor kinase, sequence (P00533 25-1210): as the sequence (P00533 25-1210) above

[10] = molecular target: T1, EGF receptor; experiment: autophosphorylation of EGF receptor in A431 cells; type: cell-based
[11] = molecular target: Cdc2 kinase (Homo sapiens, UniProt P06493); experiment: Cdc2 kinase inhibition; type: biochemical; settings: 20 μM
[12] = test system: cAMP‐dependent protein kinase; experiment: cAMP-dependent protein kinase inhibition; type: biochemical; settings: 20 μM

insulin receptor kinase, sequence (P06213 28-1382): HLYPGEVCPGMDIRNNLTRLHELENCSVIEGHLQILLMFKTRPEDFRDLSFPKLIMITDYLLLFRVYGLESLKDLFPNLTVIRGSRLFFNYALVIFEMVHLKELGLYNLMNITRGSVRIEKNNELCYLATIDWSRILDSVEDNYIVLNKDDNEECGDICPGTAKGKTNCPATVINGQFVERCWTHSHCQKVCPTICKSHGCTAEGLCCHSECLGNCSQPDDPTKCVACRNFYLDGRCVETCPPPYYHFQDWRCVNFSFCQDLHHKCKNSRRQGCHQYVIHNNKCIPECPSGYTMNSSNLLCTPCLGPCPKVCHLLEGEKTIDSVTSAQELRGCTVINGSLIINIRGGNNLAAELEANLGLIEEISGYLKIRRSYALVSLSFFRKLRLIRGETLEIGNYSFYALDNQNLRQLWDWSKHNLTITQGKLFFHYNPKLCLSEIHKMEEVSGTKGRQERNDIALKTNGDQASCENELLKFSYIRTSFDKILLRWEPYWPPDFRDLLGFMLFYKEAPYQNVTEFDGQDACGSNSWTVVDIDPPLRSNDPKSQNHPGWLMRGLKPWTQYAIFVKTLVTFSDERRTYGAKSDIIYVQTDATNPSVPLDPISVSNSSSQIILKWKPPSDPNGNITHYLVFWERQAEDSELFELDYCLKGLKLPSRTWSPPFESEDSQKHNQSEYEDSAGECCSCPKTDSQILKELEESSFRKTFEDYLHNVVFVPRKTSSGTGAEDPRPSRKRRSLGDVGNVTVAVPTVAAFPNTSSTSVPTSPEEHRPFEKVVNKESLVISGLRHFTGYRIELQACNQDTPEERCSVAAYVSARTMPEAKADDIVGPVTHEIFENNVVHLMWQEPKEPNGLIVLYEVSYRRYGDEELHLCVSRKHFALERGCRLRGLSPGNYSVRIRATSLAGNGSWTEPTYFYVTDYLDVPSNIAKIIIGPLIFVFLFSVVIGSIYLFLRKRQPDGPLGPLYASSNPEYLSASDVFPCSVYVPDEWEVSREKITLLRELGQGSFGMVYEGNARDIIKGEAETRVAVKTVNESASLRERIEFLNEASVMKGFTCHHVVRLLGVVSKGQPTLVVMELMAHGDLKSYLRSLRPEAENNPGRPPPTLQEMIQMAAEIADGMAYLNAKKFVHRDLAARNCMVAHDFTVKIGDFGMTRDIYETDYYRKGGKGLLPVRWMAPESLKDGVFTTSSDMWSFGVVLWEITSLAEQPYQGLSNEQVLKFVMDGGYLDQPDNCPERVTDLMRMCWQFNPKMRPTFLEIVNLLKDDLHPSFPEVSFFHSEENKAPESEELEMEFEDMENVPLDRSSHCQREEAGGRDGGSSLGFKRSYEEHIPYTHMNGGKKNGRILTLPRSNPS

O=C1OC(c2ccc(O)c(O)c2)=C/C1=C\c1ccc(O)c(O)c1 [BE‐23372M]
IC50 [1]: 4.5 µM
IC50 [2]: 3.3 µM
inhibition of casein kinase II [3]: not inhibited
IC50 [4]: 4.1 µM
mode of inhibition with respect to ATP ([5]; ATP): competitive
mode of inhibition with respect to the substrate peptide ([5]; substrate peptide): competitive
IC50 [6]: 1 µM
IC50 [7]: 0.42 µM
inhibition of casein kinase I [8]: not inhibited
IC50 [9]: 0.03 µM
Autophosphorylation of EGP receptor in A431 cells [10]: inhibited
inhibition of Cdc2 kinase [11]: not inhibited
inhibition of cAMP‐dependent protein kinase [12]: not inhibited
